{"source": "paper PMC3121796", "about": "(PLoS ONE, 2011)", "key": {"human Nav1.7 (hNav1.7)": {"molecular_target": "T1, human Nav1.7 (hNav1.7) (Homo sapiens, UniProt Q15858)", "T1 construct": "expressed in transfected cells; host or cells: HEK293", "T1 sequence (Q15858 whole entry)": "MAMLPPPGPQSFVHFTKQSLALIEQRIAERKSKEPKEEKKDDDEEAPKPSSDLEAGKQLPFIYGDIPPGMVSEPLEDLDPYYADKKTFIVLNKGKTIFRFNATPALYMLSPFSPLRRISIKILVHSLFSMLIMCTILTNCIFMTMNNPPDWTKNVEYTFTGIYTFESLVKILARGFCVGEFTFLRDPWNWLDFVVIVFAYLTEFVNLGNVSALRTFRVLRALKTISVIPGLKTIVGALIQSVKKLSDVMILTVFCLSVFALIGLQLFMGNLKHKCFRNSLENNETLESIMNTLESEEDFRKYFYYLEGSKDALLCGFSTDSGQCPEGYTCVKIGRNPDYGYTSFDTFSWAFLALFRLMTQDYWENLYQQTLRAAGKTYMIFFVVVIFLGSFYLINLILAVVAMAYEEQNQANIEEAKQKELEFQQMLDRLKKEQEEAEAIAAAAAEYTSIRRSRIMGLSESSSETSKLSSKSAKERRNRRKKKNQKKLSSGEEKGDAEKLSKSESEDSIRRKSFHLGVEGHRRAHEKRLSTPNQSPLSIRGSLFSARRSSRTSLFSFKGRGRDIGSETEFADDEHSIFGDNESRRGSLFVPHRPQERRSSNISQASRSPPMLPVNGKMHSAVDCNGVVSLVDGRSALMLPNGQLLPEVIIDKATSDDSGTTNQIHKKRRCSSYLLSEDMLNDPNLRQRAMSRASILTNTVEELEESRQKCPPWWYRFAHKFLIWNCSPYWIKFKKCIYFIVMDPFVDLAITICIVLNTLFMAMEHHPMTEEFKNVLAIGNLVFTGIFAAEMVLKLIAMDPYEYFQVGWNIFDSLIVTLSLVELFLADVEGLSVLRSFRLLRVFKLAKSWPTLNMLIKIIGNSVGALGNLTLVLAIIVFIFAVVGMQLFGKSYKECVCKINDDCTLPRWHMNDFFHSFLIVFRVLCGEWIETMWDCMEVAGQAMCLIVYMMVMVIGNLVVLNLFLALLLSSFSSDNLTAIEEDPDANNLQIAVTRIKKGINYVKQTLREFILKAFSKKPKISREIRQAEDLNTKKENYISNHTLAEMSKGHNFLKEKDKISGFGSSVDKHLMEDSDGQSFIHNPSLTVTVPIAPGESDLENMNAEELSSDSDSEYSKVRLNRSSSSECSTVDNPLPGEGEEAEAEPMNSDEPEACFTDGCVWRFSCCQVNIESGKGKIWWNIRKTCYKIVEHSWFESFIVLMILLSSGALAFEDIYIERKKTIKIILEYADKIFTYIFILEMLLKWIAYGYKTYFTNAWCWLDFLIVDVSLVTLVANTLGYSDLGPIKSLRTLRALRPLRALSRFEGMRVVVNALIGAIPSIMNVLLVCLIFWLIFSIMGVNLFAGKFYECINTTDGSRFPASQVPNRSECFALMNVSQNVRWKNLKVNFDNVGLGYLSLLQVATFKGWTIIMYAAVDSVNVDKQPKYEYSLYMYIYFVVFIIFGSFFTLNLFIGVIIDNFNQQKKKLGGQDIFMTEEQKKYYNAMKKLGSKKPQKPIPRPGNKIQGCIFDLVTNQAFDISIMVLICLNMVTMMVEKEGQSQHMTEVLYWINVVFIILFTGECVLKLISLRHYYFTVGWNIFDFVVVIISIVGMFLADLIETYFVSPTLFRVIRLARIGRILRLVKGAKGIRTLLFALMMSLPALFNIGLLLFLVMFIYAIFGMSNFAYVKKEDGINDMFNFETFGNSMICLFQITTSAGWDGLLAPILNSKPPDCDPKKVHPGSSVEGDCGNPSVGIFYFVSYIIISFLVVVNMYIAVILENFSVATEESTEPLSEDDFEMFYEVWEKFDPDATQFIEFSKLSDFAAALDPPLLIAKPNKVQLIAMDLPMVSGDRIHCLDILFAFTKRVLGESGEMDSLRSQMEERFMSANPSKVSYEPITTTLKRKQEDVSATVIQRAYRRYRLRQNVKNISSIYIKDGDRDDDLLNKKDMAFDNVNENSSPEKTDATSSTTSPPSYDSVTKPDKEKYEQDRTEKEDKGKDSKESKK", "experiment": "whole-cell patch-clamp assay, inhibition of hNav1.7 currents", "format": "cell-based", "conditions": "1 µmole/L toxin, HEK293 cells expressing hNav1.7, depolarization to −10 mV, room temperature, one range given for both toxins"}, "[1]": {"conditions": "cited from earlier work", "text": "It was reported that the cytoplasm of E. coli cells contains high levels of reduced glutathione (approximately 5 mmole/L); therefore, the potential of ..."}}, "note": "Positions of bridges follow the written chain, without caps; N, C: chain ends. Residues, ends and D or L forms follow the SMILES beside them. No end group written: not given here."}
{"molecule": "CC(C)C[C@H](NC(=O)[C@H](CCCCN)NC(=O)[C@H](Cc1c[nH]c2ccccc12)NC(=O)[C@H](CCCCN)NC(=O)[C@@H]1CSSC[C@@H]2NC(=O)[C@H](CCC(=O)O)NC(=O)[C@H](CC(N)=O)NC(=O)[C@H](CCCCN)NC(=O)CNC(=O)[C@@H]3CCCN3C(=O)[C@H]([C@@H](C)O)NC(=O)[C@@H]3CSSC[C@H](NC(=O)[C@H](C(C)C)NC(=O)[C@H](CCCNC(=N)N)NC(=O)[C@H](CC(N)=O)NC(=O)[C@@H]4CCCN4C(=O)[C@H](CSSC[C@H](NC(=O)[C@H](C)N)C(=O)N[C@@H](CCCCN)C(=O)NCC(=O)N[C@@H](C(C)C)C(=O)N[C@@H](Cc4ccccc4)C(=O)N[C@@H](CC(=O)O)C(=O)N[C@@H](C)C(=O)N3)NC2=O)C(=O)N[C@@H](CO)C(=O)N[C@@H](CC(=O)O)C(=O)N[C@@H](CCCCN)C(=O)N[C@@H](Cc2c[nH]cn2)C(=O)N[C@@H](CCCCN)C(=O)N[C@@H](Cc2c[nH]c3ccccc23)C(=O)N1)C(=O)O", "note": "[rHWTX-I] (H-ACKGVFDACTPGKNECCPNRVCSDKHKWCKWKL-OH; disulfide 2-17, 9-22, 16-29)", "values": [{"measurement": "hNav1.7 current reduced to (remaining current)", "setting": "human Nav1.7 (hNav1.7)", "result": "33–36%"}]}
{"molecule": "rHWTX-I (GST or KIS fusion, cytoplasm): earlier rHWTX-I expressed fused with GST or ketosteroid isomerase (KIS) in the cytoplasm of E. coli cells (ACKGVFDACTPGKNECCPNRVCSDKHKWCKWKL; not fully specified; cysteine pairing not given here; UniProt P56676 49-81, looked up)", "values": [{"measurement": "bioactivity after release by enzyme digestion", "setting": "[1]; GST fusion expressed in cytoplasm of E. coli, no disulfide bridge formed, ref [8]", "result": "very low bioactivity"}, {"measurement": "bioactivity after reduction/renaturation", "setting": "[1]; released from GST or KIS fusion protein expressed in cytoplasm of E. coli, after reduction/renaturation treatment, ref [8], [9]", "result": "fully restore the bioactivities"}, {"measurement": "bioactivity before reduction/renaturation", "setting": "[1]; released from GST or KIS fusion protein expressed in cytoplasm of E. coli, before reduction/renaturation treatment, ref [8], [9]", "result": "extremely low bioactivity"}]}
{"molecule": "rHWTX-I (baculovirus): earlier rHWTX-I expressed in a baculovirus system (ACKGVFDACTPGKNECCPNRVCSDKHKWCKWKL; ends and bridges not checked; cysteine pairing not given here; UniProt P56676 49-81, looked up)", "values": [{"measurement": "bioactivity of baculovirus-expressed peptide", "setting": "[1]; baculovirus system, ref [11]", "result": "demonstrated natural bioactivities"}]}
